Values of other authors as cited in patent publication US20240041762A1 (Zambon S.p.A., priority 2020, published 2024).

Legend:
invasive aspergillosis = settings: in vivo

In the case of `OC(Cn1cncn1)(Cn1cncn1)c1ccc(F)cc1F` [Fluconazole], the “activity against invasive aspergillosis” value (invasive aspergillosis) is given as “not active”.
In the case of `CCC(C)n1ncn(-c2ccc(N3CCN(c4ccc(OCC5COC(Cn6cncn6)(c6ccc(Cl)cc6Cl)O5)cc4)CC3)cc2)c1=O` (stereo not shown) [itraconazole], the “ELF exposure as fraction of the plasma concentration” value (healthy volunteers) is given as “approximately ⅓”, the “concentration in the alveolar cells with respect to the plasma concentration” value (healthy volunteers) is given as “more than double” and the “concentrations in bronchoalveolar lavage fluid and lung tissue, times lower than plasma” value (other cases) is given as 10 times.
